# Laboratory results as given in ChEMBL document CHEMBL1201862, “PubChem BioAssay data set” (2004).
#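 These data come from cells grown in 96-well plates and exposed to compound for 48 hours at five concentrations. At the GI50, growth is halved.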 Active and inactive are the calls of the source. Cut-off read from the data, not from the text of the source: active = GI50 up to about 1.1 µM and inactive = higher.
# Legend:
# Experiment in all cases: DTP human tumour cell line panel, 48 h
# K562 = test system: K562
# OVCAR-3 = test system: OVCAR-3
# MCF7 = test system: MCF7
# TK-10 = test system: TK-10
# U-251 = test system: U-251
# MDA-MB-435 = test system: MDA-MB-435
# OVCAR-5 = test system: OVCAR-5
# A498 = test system: A498
# HT-29 = test system: HT-29
# COLO 205 = test system: COLO 205
# Malme-3M = test system: Malme-3M
# CAKI-1 = test system: CAKI-1
# A549 = test system: A549
# BT-549 = test system: BT-549
# NCI-H522 = test system: NCI-H522
# SF-539 = test system: SF-539
# OVCAR-4 = test system: OVCAR-4
# KM12 = test system: KM12
# SK-OV-3 = test system: SK-OV-3
Structure (SMILES),GI50 (K562),GI50 (OVCAR-3),GI50 (MCF7),GI50 (TK-10),GI50 (U-251),GI50 (MDA-MB-435),GI50 (OVCAR-5),GI50 (A498),GI50 (HT-29),GI50 (COLO 205),GI50 (Malme-3M),GI50 (CAKI-1),GI50 (A549),GI50 (BT-549),GI50 (NCI-H522),GI50 (SF-539),GI50 (OVCAR-4),GI50 (KM12),GI50 (SK-OV-3)
O=C1Nc2ccccc2/C1=C\c1c(-c2ccccc2)nc2n1CCS2,19.5 µM (inactive),15.6 µM (inactive),12.5 µM (inactive),13.9 µM (inactive),20.5 µM (inactive),8.93 µM (inactive),17.5 µM (inactive),18.2 µM (inactive),19.5 µM (inactive),29 µM (inactive),26.9 µM (inactive),21.3 µM (inactive),28.4 µM (inactive),20 µM (inactive),18.7 µM (inactive),18.7 µM (inactive),29 µM (inactive),16.8 µM (inactive),21.4 µM (inactive)
O=S(=O)(O)CCCC1S(=O)(=O)OCCOS1(=O)=O,–,> 100 µM (inactive),> 100 µM (inactive),> 100 µM (inactive),> 100 µM (inactive),> 100 µM (inactive),> 100 µM (inactive),> 100 µM (inactive),> 100 µM (inactive),> 100 µM (inactive),> 100 µM (inactive),> 100 µM (inactive),–,> 100 µM (inactive),> 100 µM (inactive),> 100 µM (inactive),> 100 µM (inactive),> 100 µM (inactive),> 100 µM (inactive)
Cc1ccc2cccc3c2c1CC1(C3=O)S(=O)(=O)OCCOS1(=O)=O,> 100 µM (inactive),> 100 µM (inactive),> 100 µM (inactive),> 100 µM (inactive),> 100 µM (inactive),> 100 µM (inactive),> 100 µM (inactive),> 100 µM (inactive),> 100 µM (inactive),> 100 µM (inactive),> 100 µM (inactive),> 100 µM (inactive),> 100 µM (inactive),> 100 µM (inactive),> 100 µM (inactive),> 100 µM (inactive),> 100 µM (inactive),> 100 µM (inactive),> 100 µM (inactive)
NC1CC(=O)c2csc(Cl)c21 (centres undefined),2.74 µM (inactive),6.38 µM (inactive),17.5 µM (inactive),11.5 µM (inactive),8.51 µM (inactive),12.8 µM (inactive),19.6 µM (inactive),17.1 µM (inactive),10.3 µM (inactive),5.32 µM (inactive),2.68 µM (inactive),1.86 µM (inactive),17.9 µM (inactive),17.7 µM (inactive),1.72 µM (inactive),2.23 µM (inactive),25.9 µM (inactive),0.736 µM (active),17.3 µM (inactive)
CCOC(=O)c1c(N2CCOCC2)[nH]c(=O)c(C(c2ccc(N(C)C)cc2)c2c(O)c(C(=O)OCC)c(N3CCOCC3)[nH]c2=O)c1O,> 100 µM (inactive),> 100 µM (inactive),> 100 µM (inactive),> 100 µM (inactive),> 100 µM (inactive),> 100 µM (inactive),> 100 µM (inactive),> 100 µM (inactive),> 100 µM (inactive),> 100 µM (inactive),> 100 µM (inactive),> 100 µM (inactive),> 100 µM (inactive),> 100 µM (inactive),> 100 µM (inactive),> 100 µM (inactive),> 100 µM (inactive),> 100 µM (inactive),> 100 µM (inactive)
O=C1N/C(=N/N=C/c2cccs2)N/C1=C\c1ccco1,37.4 µM (inactive),22.5 µM (inactive),30.3 µM (inactive),> 100 µM (inactive),23.5 µM (inactive),20.6 µM (inactive),> 100 µM (inactive),17.1 µM (inactive),39.6 µM (inactive),35.5 µM (inactive),38.6 µM (inactive),> 100 µM (inactive),33.7 µM (inactive),70 µM (inactive),7.98 µM (inactive),28.9 µM (inactive),> 100 µM (inactive),34 µM (inactive),21.9 µM (inactive)
O=C1C=CC(=O)c2c1ccc1c3ccccc3n(Cc3ccccc3)c21,2.84 µM (inactive),17.3 µM (inactive),17.1 µM (inactive),18.6 µM (inactive),51.9 µM (inactive),26.1 µM (inactive),20.9 µM (inactive),19.8 µM (inactive),24.9 µM (inactive),18.9 µM (inactive),16.6 µM (inactive),17.2 µM (inactive),> 100 µM (inactive),20.4 µM (inactive),14.3 µM (inactive),38.4 µM (inactive),13.3 µM (inactive),> 57.5 µM (inactive),> 100 µM (inactive)
CC(=O)O[C@H]1C(=O)[C@@]2(C)[C@H]([C@H](OC(=O)c3ccccc3)[C@]3(O)C[C@H](OC(=O)[C@H](O)[C@@H](NC(=O)c4ccccc4)c4ccc5ccccc5c4)C(C)=C1C3(C)C)[C@]1(OC(C)=O)CO[C@@H]1C[C@@H]2O,0.029 µM (active),0.0362 µM (active),0.00966 µM (active),0.506 µM (active),0.0692 µM (active),0.00993 µM (active),0.153 µM (active),0.467 µM (active),0.0454 µM (active),0.0787 µM (active),0.179 µM (active),1.59 µM (inactive),0.0998 µM (active),0.0807 µM (active),0.0524 µM (active),0.0336 µM (active),0.841 µM (active),0.0512 µM (active),0.0248 µM (active)
O=C(O)c1cc2c(cc1CC(Cc1ccccc1)C(=O)O)CCC2 (centres undefined),> 100 µM (inactive),> 100 µM (inactive),> 100 µM (inactive),> 100 µM (inactive),> 100 µM (inactive),> 100 µM (inactive),> 100 µM (inactive),> 100 µM (inactive),> 100 µM (inactive),> 100 µM (inactive),> 100 µM (inactive),> 100 µM (inactive),> 100 µM (inactive),> 100 µM (inactive),> 100 µM (inactive),> 100 µM (inactive),> 100 µM (inactive),> 100 µM (inactive),> 100 µM (inactive)
COC(=O)[C@]12CC[C@H]3CN(C(=O)OCc4ccccc4)[C@H]([C@H]31)[C@H](c1ccco1)N2S(=O)(=O)c1ccc(C)cc1,16.9 µM (inactive),19.1 µM (inactive),17.5 µM (inactive),33.2 µM (inactive),27.9 µM (inactive),23.3 µM (inactive),38.5 µM (inactive),27.4 µM (inactive),20.6 µM (inactive),19.8 µM (inactive),21.3 µM (inactive),28.8 µM (inactive),31.8 µM (inactive),15.7 µM (inactive),19.2 µM (inactive),33.1 µM (inactive),28.5 µM (inactive),19.3 µM (inactive),52.1 µM (inactive)
ClCc1nc2ccccc2[nH]1,> 100 µM (inactive),> 100 µM (inactive),99.1 µM (inactive),> 100 µM (inactive),> 100 µM (inactive),> 100 µM (inactive),> 100 µM (inactive),> 100 µM (inactive),> 100 µM (inactive),> 100 µM (inactive),34.5 µM (inactive),> 100 µM (inactive),> 100 µM (inactive),42.8 µM (inactive),> 100 µM (inactive),> 100 µM (inactive),> 100 µM (inactive),> 100 µM (inactive),–
N#Cc1ccccc1NC(=O)/C(=N\NC(=O)c1ccncc1)C(c1cnc2ccc([N+](=O)[O-])cc2n1)[N+](=O)[O-] (centres undefined),–,> 100 µM (inactive),80.2 µM (inactive),> 100 µM (inactive),> 100 µM (inactive),74.8 µM (inactive),> 100 µM (inactive),> 100 µM (inactive),> 100 µM (inactive),–,> 100 µM (inactive),> 100 µM (inactive),97.9 µM (inactive),> 100 µM (inactive),33 µM (inactive),> 100 µM (inactive),> 100 µM (inactive),39.9 µM (inactive),> 100 µM (inactive)
CC1(C)Oc2ccc3c(=O)cc(-c4ccccc4)oc3c2C1C(=O)O (centres undefined),> 100 µM (inactive),> 100 µM (inactive),> 100 µM (inactive),> 100 µM (inactive),> 100 µM (inactive),> 100 µM (inactive),> 100 µM (inactive),> 100 µM (inactive),> 100 µM (inactive),> 100 µM (inactive),> 100 µM (inactive),> 100 µM (inactive),> 100 µM (inactive),> 100 µM (inactive),> 100 µM (inactive),> 100 µM (inactive),> 100 µM (inactive),–,> 100 µM (inactive)
CC[C@H](C)[C@H](NC(=O)[C@H](Cc1ccc(O)cc1)NCC(F)(F)F)C(=O)OC(C)(C)C,8.61 µM (inactive),–,7.74 µM (inactive),8.09 µM (inactive),6.85 µM (inactive),7 µM (inactive),8.63 µM (inactive),7.31 µM (inactive),7.6 µM (inactive),8.05 µM (inactive),10.2 µM (inactive),7.01 µM (inactive),5.41 µM (inactive),10.8 µM (inactive),7.31 µM (inactive),9.71 µM (inactive),5.64 µM (inactive),7.78 µM (inactive),8.11 µM (inactive)
